According to PubChem BioAssay (NCI):
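Briefly, cells in 96-well plates were exposed to five compound concentrations for 48 h, and endpoints were estimated by linear interpolation. GI50 = concentration required for 50% inhibition of growth. TGI denotes the concentration required for complete inhibition of growth.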

Tests used:
Test in all cases: NCI-60 cell line screen, 48 h
NCI/ADR-RES ovarian = system: NCI/ADR-RES ovarian
HOP-92 NSCLC = system: HOP-92 NSCLC
OVCAR-3 ovarian = system: OVCAR-3 ovarian
UACC-257 melanoma = system: UACC-257 melanoma
M14 melanoma = system: M14 melanoma
HOP-62 NSCLC = system: HOP-62 NSCLC
UACC-62 melanoma = system: UACC-62 melanoma
MDA-MB-468 breast = system: MDA-MB-468 breast
MALME-3M melanoma = system: MALME-3M melanoma
786-0 renal = system: 786-0 renal
T-47D breast = system: T-47D breast
SK-OV-3 ovarian = system: SK-OV-3 ovarian
A549 NSCLC = system: A549 NSCLC
NCI-H226 lung = system: NCI-H226 lung
MCF7 breast = system: MCF7 breast
SK-MEL-2 melanoma = system: SK-MEL-2 melanoma
COLO 205 colon = system: COLO 205 colon
MDA-MB-435 = system: MDA-MB-435
KM12 colon = system: KM12 colon
PC-3 prostate = system: PC-3 prostate
TK-10 renal = system: TK-10 renal
SK-MEL-5 melanoma = system: SK-MEL-5 melanoma
HCT-15 colon = system: HCT-15 colon
BT-549 breast = system: BT-549 breast
SK-MEL-28 melanoma = system: SK-MEL-28 melanoma
HCT-116 colon = system: HCT-116 colon
A498 renal = system: A498 renal
RXF 393 renal = system: RXF 393 renal

Structure (SMILES): Cc1noc2c(Cc3ccccc3)nn(CC(=O)N/N=C/c3ccc(Br)cc3)c(=O)c12
- GI50 (NCI/ADR-RES ovarian): 5.64 µM
- TGI (NCI/ADR-RES ovarian): > 100 µM
- GI50 (HOP-92 NSCLC): 4.3 µM
- TGI (HOP-92 NSCLC): 21.5 µM
- GI50 (OVCAR-3 ovarian): 3.36 µM
- TGI (OVCAR-3 ovarian): > 100 µM
- GI50 (UACC-257 melanoma): > 100 µM
- TGI (UACC-257 melanoma): > 100 µM
- GI50 (M14 melanoma): 29.8 µM
- TGI (M14 melanoma): > 100 µM
- GI50 (HOP-62 NSCLC): 3.37 µM
- TGI (HOP-62 NSCLC): 13.1 µM
- GI50 (UACC-62 melanoma): 13.2 µM
- TGI (UACC-62 melanoma): 49.6 µM
- GI50 (MDA-MB-468 breast): 9.61 µM
- TGI (MDA-MB-468 breast): 35.9 µM
- GI50 (MALME-3M melanoma): 14.5 µM
- TGI (MALME-3M melanoma): 44.3 µM
- GI50 (786-0 renal): 1.89 µM
- TGI (786-0 renal): 4.17 µM
- GI50 (T-47D breast): 1.96 µM
- TGI (T-47D breast): 5.46 µM
- GI50 (SK-OV-3 ovarian): 3.19 µM
- TGI (SK-OV-3 ovarian): 9.49 µM
- GI50 (A549 NSCLC): 6.34 µM
- TGI (A549 NSCLC): > 100 µM
- GI50 (NCI-H226 lung): 2.33 µM
- TGI (NCI-H226 lung): 6.11 µM
- GI50 (MCF7 breast): 77 µM
- TGI (MCF7 breast): > 100 µM
- GI50 (SK-MEL-2 melanoma): 17.5 µM
- TGI (SK-MEL-2 melanoma): 33.7 µM
- GI50 (COLO 205 colon): 7.46 µM
- TGI (COLO 205 colon): > 100 µM
- GI50 (MDA-MB-435): > 100 µM
- TGI (MDA-MB-435): > 100 µM
- GI50 (KM12 colon): > 100 µM
- TGI (KM12 colon): > 100 µM
- GI50 (PC-3 prostate): 29.8 µM
- TGI (PC-3 prostate): > 100 µM
- GI50 (TK-10 renal): 3.01 µM
- TGI (TK-10 renal): 9.71 µM
- GI50 (SK-MEL-5 melanoma): 28.4 µM
- TGI (SK-MEL-5 melanoma): > 100 µM
- GI50 (HCT-15 colon): > 100 µM
- TGI (HCT-15 colon): > 100 µM
- GI50 (BT-549 breast): 17.7 µM
- TGI (BT-549 breast): 49.4 µM
- GI50 (SK-MEL-28 melanoma): > 100 µM
- TGI (SK-MEL-28 melanoma): > 100 µM
- GI50 (HCT-116 colon): 3.31 µM
- TGI (HCT-116 colon): 17.7 µM
- GI50 (A498 renal): 1.73 µM
- TGI (A498 renal): 3.34 µM
- GI50 (RXF 393 renal): 3.04 µM
